Activity calls are given as the source filed them. The rule behind the calls is not given here.
Assays:
[1] = tested on: MCF7; assay: Induction of cell cycle arrest in human MCF7 cells assessed as accumulation at G2/M phase at 1 uM incubated for 4 hrs by PI staining based flow cytometric analysis; type: functional
[2] = biological target: Histone deacetylase 1 (Homo sapiens, UniProt Q13547); assay: Inhibition of C-terminal FLAG/His-tagged human recombinant HDAC1 (1 to 482 residues) expressed in baculovirus-infected Sf9 cells assessed as reduction in 7-amino-4-methylcoumarin release using fluorogenic HDAC substrate 3 measured every 5 mins by fluorescence based analysis
Sequence of Histone deacetylase 1 (Q13547 whole entry, the tested form may be a part): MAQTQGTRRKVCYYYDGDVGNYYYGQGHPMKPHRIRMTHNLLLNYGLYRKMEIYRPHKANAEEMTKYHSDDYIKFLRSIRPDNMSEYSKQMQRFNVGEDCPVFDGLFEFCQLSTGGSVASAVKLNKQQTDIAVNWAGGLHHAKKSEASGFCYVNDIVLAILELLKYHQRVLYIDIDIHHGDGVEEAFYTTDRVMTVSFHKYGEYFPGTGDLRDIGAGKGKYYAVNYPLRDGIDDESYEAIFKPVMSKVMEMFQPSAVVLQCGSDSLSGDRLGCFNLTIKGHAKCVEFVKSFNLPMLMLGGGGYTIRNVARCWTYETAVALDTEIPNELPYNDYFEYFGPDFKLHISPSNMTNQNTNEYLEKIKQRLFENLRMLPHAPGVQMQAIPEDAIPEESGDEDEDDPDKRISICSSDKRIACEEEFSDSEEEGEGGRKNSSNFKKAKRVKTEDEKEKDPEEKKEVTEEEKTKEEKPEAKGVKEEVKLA

[3] = biological target: Histone deacetylase 2 (Homo sapiens, UniProt Q92769); type: cell-based, Sf9
Sequence of Histone deacetylase 2 (Q92769 whole entry): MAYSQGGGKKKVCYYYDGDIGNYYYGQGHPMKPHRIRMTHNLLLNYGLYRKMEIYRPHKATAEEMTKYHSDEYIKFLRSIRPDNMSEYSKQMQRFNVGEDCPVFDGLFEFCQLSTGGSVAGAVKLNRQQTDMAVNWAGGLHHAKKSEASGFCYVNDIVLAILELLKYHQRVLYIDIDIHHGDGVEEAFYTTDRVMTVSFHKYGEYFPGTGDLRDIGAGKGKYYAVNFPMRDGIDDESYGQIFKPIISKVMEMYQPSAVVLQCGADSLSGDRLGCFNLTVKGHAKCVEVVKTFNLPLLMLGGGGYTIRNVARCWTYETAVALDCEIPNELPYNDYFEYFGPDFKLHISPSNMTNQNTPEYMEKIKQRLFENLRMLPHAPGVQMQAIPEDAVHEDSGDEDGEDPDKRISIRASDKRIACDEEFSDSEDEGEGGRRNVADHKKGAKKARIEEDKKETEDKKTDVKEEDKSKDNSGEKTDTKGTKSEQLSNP

[4] = tested on: MCF7; assay: Induction of cell cycle arrest in human MCF7 cells assessed as accumulation at subG1 phase at 1 uM incubated for 24 to 72 hrs by PI staining based flow cytometric analysis; type: functional; details: time 24-72 hrs
[5] = tested on: MCF7; assay: Induction of apoptosis in human MCF7 cells assessed as downregulation of c-Myc protein expression at 1 to 3 uM measured after 48 hrs western blot analysis; type: functional, cell-based; details: dose 1-3 µM
[6] = tested on: MCF7; assay: Downregulation of SIRT2 gene expression in human MCF7 cells at 3 uM incubated for 24 hrs by whole transcriptome analysis; type: functional, cell-based
[7] = biological target: Histone deacetylase 3/Nuclear receptor corepressor 2 (HDAC3/NCoR2) (Homo sapiens, UniProt O15379); assay: Inhibition of C-terminal His-tagged human recombinant full length HDAC3 (1 to 428 residues)/N-terminal GST-tagged human recombinant NCOR2 (395 to 489 residues) expressed in baculovirus-infected Sf9 cells assessed as reduction in 7-amino-4-methylcoumarin release using fluorogenic HDAC substrate 3 measured every 5 mins by fluorescence based analysis
Sequence of Histone deacetylase 3/Nuclear receptor corepressor 2 (HDAC3/NCoR2) (O15379 whole entry, the tested form may be a part): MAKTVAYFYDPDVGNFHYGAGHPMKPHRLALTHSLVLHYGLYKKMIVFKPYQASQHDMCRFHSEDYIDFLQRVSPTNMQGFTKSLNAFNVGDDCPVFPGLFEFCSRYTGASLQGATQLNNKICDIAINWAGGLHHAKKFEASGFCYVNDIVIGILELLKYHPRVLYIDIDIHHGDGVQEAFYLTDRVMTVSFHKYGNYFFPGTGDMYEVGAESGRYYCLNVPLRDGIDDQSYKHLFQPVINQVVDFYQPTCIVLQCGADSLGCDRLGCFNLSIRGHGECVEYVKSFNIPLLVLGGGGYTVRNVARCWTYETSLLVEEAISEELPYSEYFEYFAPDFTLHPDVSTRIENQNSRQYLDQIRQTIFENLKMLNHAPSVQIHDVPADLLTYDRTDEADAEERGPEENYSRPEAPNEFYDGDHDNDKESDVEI
Sequence of Histone deacetylase 3/Nuclear receptor corepressor 2 (HDAC3/NCoR2) (Q9Y618 whole entry, further chain, the tested form may be a part): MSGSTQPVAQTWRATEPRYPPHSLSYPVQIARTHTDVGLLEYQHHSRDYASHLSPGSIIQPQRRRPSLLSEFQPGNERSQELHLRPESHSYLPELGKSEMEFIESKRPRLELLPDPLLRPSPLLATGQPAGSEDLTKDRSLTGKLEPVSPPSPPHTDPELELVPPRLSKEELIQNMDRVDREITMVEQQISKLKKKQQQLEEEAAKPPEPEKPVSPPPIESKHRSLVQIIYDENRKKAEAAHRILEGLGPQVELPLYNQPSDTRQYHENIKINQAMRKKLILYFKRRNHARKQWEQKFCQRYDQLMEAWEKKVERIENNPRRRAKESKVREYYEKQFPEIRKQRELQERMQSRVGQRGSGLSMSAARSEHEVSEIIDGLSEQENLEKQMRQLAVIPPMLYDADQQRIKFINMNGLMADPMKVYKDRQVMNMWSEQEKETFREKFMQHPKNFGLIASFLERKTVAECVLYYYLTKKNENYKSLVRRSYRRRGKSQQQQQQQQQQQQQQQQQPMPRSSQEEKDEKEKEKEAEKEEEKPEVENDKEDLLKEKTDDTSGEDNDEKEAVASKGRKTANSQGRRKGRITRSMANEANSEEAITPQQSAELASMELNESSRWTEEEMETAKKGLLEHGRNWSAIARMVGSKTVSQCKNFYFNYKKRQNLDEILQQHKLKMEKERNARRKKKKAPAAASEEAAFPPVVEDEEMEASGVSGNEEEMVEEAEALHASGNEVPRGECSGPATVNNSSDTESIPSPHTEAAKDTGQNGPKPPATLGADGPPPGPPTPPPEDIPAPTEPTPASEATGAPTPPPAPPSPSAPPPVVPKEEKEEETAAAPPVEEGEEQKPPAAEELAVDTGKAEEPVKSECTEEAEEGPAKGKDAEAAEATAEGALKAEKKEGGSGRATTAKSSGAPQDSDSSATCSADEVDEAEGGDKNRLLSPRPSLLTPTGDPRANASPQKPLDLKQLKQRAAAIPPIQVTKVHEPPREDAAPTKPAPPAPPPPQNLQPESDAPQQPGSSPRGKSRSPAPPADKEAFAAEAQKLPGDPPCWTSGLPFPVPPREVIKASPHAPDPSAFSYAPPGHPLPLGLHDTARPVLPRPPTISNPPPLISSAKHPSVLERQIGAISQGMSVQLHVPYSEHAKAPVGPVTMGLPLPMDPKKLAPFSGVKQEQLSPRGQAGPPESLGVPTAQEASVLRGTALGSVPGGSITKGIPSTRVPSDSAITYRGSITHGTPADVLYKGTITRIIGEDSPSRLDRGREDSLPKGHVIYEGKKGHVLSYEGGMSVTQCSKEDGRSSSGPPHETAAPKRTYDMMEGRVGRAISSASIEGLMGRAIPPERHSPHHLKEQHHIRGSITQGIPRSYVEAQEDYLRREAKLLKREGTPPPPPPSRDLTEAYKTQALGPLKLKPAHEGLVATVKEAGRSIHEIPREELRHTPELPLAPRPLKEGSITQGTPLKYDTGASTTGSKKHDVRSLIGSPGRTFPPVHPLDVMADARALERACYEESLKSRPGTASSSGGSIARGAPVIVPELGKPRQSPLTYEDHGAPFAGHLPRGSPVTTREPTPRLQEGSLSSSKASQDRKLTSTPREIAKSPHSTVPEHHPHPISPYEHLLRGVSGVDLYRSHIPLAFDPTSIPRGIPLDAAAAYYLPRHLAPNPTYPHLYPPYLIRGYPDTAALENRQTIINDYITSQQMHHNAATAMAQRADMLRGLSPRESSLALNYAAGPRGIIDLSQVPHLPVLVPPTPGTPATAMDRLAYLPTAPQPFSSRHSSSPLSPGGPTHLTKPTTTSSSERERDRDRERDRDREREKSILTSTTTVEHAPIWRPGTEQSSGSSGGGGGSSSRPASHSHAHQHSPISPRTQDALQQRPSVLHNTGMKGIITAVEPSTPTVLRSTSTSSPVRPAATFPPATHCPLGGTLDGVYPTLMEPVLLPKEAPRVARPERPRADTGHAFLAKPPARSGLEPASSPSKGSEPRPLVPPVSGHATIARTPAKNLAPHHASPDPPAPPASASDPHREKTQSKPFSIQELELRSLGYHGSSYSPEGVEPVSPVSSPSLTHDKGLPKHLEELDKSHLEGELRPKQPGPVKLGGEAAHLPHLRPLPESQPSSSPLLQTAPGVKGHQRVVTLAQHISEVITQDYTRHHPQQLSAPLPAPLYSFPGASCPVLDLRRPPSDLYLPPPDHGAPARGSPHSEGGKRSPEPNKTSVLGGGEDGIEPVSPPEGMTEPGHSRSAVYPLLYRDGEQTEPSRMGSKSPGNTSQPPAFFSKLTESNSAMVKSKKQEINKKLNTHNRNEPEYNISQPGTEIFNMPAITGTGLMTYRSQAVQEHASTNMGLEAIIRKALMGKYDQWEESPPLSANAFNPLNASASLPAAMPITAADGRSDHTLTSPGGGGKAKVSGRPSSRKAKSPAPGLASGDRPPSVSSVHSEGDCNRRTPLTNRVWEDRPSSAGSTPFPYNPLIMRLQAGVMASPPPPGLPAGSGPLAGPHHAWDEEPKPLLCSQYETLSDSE

[8] = tested on: MCF7; assay: Induction of apoptosis in human MCF7 cells assessed as increase in caspase 3/7 activity at 1 to 3 uM measured after 48 hrs by ELISA; type: functional, cell-based; details: dose 1-3 µM
[9] = tested on: MCF7; assay: Induction of apoptosis in human MCF7 cells assessed as reduction in Bcl3 gene expression at 3 uM incubated for 24 hrs by whole transcriptome analysis; type: functional, cell-based
[10] = tested on: MCF7; assay: Antiproliferative activity against human MCF7 cells assessed as reduction in cell viability incubated for 48 hrs by SRB assay; type: functional, cell-based; details: MCF7, 48 h
[11] = biological target: T1, Histone deacetylase 7 (Homo sapiens, UniProt Q8WUI4); assay: Inhibition of N-terminal GST-tagged human HDAC7 (518 to end residues) expressed in baculovirus-infected Sf9 cells assessed as reduction in 7-amino-4-methylcoumarin release measured every 5 mins by fluorescence based analysis
T1 sequence (Q8WUI4 whole entry): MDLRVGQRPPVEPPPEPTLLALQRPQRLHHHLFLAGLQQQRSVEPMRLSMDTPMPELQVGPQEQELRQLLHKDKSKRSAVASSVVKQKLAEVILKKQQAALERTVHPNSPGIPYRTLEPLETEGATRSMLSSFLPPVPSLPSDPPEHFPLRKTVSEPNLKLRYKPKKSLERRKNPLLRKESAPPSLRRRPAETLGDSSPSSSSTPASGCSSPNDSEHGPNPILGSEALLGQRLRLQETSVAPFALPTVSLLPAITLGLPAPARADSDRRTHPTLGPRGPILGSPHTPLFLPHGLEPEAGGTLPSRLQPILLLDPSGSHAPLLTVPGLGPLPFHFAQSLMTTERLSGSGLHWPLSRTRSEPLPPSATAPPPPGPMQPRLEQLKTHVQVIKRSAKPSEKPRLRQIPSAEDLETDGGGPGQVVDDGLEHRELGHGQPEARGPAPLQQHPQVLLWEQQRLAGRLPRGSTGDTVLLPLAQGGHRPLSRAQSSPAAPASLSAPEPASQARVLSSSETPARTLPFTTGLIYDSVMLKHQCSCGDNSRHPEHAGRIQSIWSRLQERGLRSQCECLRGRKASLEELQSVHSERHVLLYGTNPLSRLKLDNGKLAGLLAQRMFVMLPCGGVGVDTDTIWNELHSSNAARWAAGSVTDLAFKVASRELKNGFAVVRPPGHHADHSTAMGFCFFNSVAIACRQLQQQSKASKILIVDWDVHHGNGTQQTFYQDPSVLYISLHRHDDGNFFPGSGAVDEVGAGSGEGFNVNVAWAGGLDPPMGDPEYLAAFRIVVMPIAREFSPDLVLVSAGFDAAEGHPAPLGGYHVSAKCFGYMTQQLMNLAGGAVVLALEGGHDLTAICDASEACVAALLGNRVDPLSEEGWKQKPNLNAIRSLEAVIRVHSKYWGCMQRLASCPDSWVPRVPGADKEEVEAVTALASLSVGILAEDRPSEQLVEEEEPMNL

[12] = tested on: MCF7; assay: Upregulation of NFkB2 gene expression in human MCF7 cells at 3 uM incubated for 24 hrs by whole transcriptome analysis; type: functional, cell-based
[13] = tested on: A549; assay: Antiproliferative activity against human A549 cells assessed as reduction in cell viability incubated for 48 hrs by SRB assay; type: functional, cell-based; details: A549, 48 h
[14] = tested on: MCF7; assay: Downregulation of SIRT4 gene expression in human MCF7 cells at 3 uM incubated for 24 hrs by whole transcriptome analysis; type: functional, cell-based
[15] = biological target: Histone deacetylase 4 (Homo sapiens, UniProt P56524); assay: Inhibition of N-terminal GST-tagged/C-terminal His-tagged human recombinant HDAC4 (627 to 1084 residues) expressed in baculovirus-infected Sf9 cells assessed as reduction in 7-amino-4-methylcoumarin release measured every 5 mins by fluorescence based analysis
Sequence of Histone deacetylase 4 (P56524 whole entry, the tested form may be a part): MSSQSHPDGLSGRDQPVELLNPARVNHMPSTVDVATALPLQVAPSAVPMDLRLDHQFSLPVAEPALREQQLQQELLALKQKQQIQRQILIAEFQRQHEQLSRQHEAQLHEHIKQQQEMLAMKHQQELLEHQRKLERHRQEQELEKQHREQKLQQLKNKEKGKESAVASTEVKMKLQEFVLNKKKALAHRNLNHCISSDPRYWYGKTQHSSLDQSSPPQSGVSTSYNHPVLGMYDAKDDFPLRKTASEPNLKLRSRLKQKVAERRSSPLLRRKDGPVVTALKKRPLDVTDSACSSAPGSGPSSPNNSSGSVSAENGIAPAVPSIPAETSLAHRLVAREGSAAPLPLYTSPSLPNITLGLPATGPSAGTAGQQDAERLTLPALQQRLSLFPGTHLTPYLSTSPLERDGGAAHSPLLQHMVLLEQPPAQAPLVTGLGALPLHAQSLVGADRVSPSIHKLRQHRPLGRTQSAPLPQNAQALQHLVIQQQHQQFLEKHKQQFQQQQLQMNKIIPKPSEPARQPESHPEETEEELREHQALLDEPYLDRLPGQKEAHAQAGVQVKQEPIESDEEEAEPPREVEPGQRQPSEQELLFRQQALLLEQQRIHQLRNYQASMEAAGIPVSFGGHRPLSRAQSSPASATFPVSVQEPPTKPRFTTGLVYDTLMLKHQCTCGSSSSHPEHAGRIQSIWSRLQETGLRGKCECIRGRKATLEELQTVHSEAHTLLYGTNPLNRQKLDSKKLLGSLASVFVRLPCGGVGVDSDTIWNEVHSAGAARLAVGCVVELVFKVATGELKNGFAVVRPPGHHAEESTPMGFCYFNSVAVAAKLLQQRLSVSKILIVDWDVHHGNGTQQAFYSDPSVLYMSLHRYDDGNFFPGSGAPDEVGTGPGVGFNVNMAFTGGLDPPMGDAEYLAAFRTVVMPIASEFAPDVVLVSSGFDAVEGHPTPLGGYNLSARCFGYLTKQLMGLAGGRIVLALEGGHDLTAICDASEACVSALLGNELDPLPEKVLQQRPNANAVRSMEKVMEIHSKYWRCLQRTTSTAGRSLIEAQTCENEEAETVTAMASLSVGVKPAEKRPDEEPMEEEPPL

[16] = biological target: Histone deacetylase 9 (Homo sapiens, UniProt Q9UKV0); assay: Inhibition of C-terminal His-tagged human HDAC9 (604 to 1066 residues) expressed in baculovirus-infected Sf9 cells assessed as reduction in 7-amino-4-methylcoumarin release measured every 5 mins by fluorescence based analysis
[17] = biological target: Histone deacetylase (Homo sapiens) (UniProt Q13547+O15379+Q9UBN7+Q92769+Q9UQL6+Q8WUI4+Q9BY41+Q96DB2+P56524+Q9UKV0+Q969S8); assay: Inhibition of HDAC in human MCF7 cells assessed as increase in acetylated histone H4 mRNA level at 3 uM incubated for 24 hrs by whole transcriptome analysis; type: cell-based
[18] = tested on: MCF7; assay: Induction of apoptosis in human MCF7 cells assessed as downregulation of c-Myc gene expression at 1 uM measured after 24 hrs whole transcriptome analysis; type: functional, cell-based
[19] = biological target: T2, Histone deacetylase 5 (Homo sapiens, UniProt Q9UQL6); assay: Inhibition of N-terminal GST-tagged human recombinant full length HDAC5 expressed in baculovirus-infected Sf9 cells assessed as reduction in 7-amino-4-methylcoumarin release measured every 5 mins by fluorescence based analysis
[20] = tested on: MCF7; assay: Induction of apoptosis in human MCF7 cells assessed as reduction in Bcl2 gene expression at 3 uM incubated for 24 hrs by whole transcriptome analysis; type: functional, cell-based
[21] = tested on: MCF7; assay: Induction of cell cycle arrest in human MCF7 cells assessed as accumulation at G2/M phase at 1 uM incubated for 24 hrs by PI staining based flow cytometric analysis; type: functional
[22] = tested on: MCF7; assay: Induction of cell cycle arrest in human MCF7 cells assessed downregulation of CDK2 gene expression at 3 uM incubated for 24 hrs by whole transcriptome analysis; type: functional, cell-based
[23] = tested on: MCF7; assay: Downregulation of NFkB2 gene expression in human MCF7 cells at 3 uM incubated for 24 hrs by whole transcriptome analysis; type: functional, cell-based
[24] = tested on: MCF7; assay: Induction of cell cycle arrest in human MCF7 cells assessed downregulation of RB1 gene expression at 3 uM incubated for 24 hrs by whole transcriptome analysis; type: functional, cell-based
[25] = tested on: MCF7; assay: Induction of cell cycle arrest in human MCF7 cells assessed downregulation of CDK4 gene expression at 3 uM incubated for 24 hrs by whole transcriptome analysis; type: functional, cell-based
[26] = tested on: MCF7; assay: Induction of cell cycle arrest in human MCF7 cells assessed downregulation of CDK1 gene expression at 3 uM incubated for 24 hrs by whole transcriptome analysis; type: functional, cell-based
[27] = tested on: MCF7; assay: Induction of cell cycle arrest in human MCF7 cells assessed downregulation of E2F1 gene expression at 3 uM incubated for 24 hrs by whole transcriptome analysis; type: functional, cell-based
[28] = tested on: MCF7; assay: Induction of cell cycle arrest in human MCF7 cells assessed downregulation of CDK6 gene expression at 3 uM incubated for 24 hrs by whole transcriptome analysis; type: functional, cell-based
[29] = tested on: MCF7; assay: Upregulation of SIRT2 gene expression in human MCF7 cells at 3 uM incubated for 24 hrs by whole transcriptome analysis; type: functional, cell-based
[30] = tested on: MCF7; assay: Upregulation of SIRT4 gene expression in human MCF7 cells at 3 uM incubated for 24 hrs by whole transcriptome analysis; type: functional, cell-based
[31] = tested on: MCF7; assay: Induction of cell cycle arrest in human MCF7 cells assessed as accumulation at G1/S phase at 1 uM incubated for 4 hrs by PI staining based flow cytometric analysis; type: functional
[32] = biological target: T2, Histone deacetylase 5; assay: Potency index, ratio of vorinostat IC50 to test compound IC50 for Inhibition of N-terminal GST-tagged human recombinant full length HDAC5 expressed in baculovirus-infected Sf9 cells assessed as reduction in 7-amino-4-methylcoumarin release measured every 5 mins by fluorescence based analysis

SMILES | Activity [1] | IC50 [2] [nM] | IC50 [3] [nM] | Activity [4] | Activity [5] | inhibition [6] | IC50 [7] [nM] | Activity [8] | Activity [9] | IC50 [10] [nM] | IC50 [11] [nM] | Activity [12] | IC50 [13] [nM] | inhibition [14] | IC50 [15] [nM] | IC50 [16] [nM] | Activity [18] | IC50 [19] [nM] | Activity [20] | Activity [21] | other results
CC(C)(C)Nc1c(-c2cccc(C(=O)Nc3ccc(F)cc3N)c2)nc2ccccn12 | Active | > 10000 | > 10000 | Active | Active | Active | 2120 | Active | Active | 700 | 6100 | Active | > 10000 | Active | > 10000 | 1300 | Active | 12400 | Active | Active | inhibition [17]: Active
CC(C)(C)Nc1c(-c2ccc(-c3noc(C(F)(F)F)n3)cc2)nc2ccccn12 | Active | > 10000 | > 10000 | Active |  | Active | > 10000 | Active | Active | > 10000 | 6900 |  | > 10000 | Active | 3580 | 2310 |  | 812 | Active | Active | Activity [22]: Active; inhibition [23]: Active; Activity [24]: Active; Activity [25]: Active; Activity [26]: Active; Activity [27]: Active; Activity [28]: Active
COc1cccc2c1C(=O)c1c(O)c3c(c(O)c1C2=O)C[C@@](O)(C(=O)CO)C[C@@H]3O[C@H]1C[C@H](N)[C@H](O)[C@H](C)O1 [DOXORUBICIN] |  |  |  |  |  |  |  |  |  | 38 |  |  | 90 |  |  |  |  |  |  |  | 
O=C(NC1CCN(Cc2ccccc2)C1)c1ccc(-c2noc(C(F)(F)F)n2)cc1 (stereo not given) |  |  |  |  |  |  | 1090 |  |  |  |  |  |  |  | 19 | 48 |  | 61 |  |  | 
O=C(CCCCCCC(=O)Nc1ccccc1)NO |  |  |  |  | Active |  |  | Active | inactive |  |  | Active |  |  |  |  | Active |  |  | Active | Activity [29]: Active; Activity [30]: Active; Activity [31]: Active
CC(C)(C)Nc1c(-c2cccc(-c3nc4cc(-c5noc(C(F)(F)F)n5)ccc4[nH]3)c2)nc2ccccn12 |  | > 10000 | > 10000 | inactive |  | Active | > 10000 | Active | Active | > 10000 | 4850 |  | > 10000 | Active | 1650 | 818 | Active | 310 | Active |  | Activity [22]: Active; inhibition [23]: Active; Activity [24]: Active; Activity [25]: Active; Activity [26]: Active; Activity [27]: Active; Activity [28]: Active; Activity [31]: Active; Ratio IC50 [32]: > 33
